We go through 45 compounds from patent US11365192B2, “Pyridine compound substituted with azole” (TAISHO PHARMACEUTICAL CO., LTD., priority 2017, dated 2022).

One experiment addresses human CYP4A11 (Homo sapiens (Human), UniProt Q02928). The experiment can be described thus: Inhibition test against 20-HETE producing enzyme CYP4A11 (luciferine derivative, luminescence). It counts as biochemical. Conditions: E. coli membrane fraction expressing human CYP4A11, 60 μM luciferine derivative, room temperature 60 minutes. Summed up: (§1)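 E. coli membranes (100 μg/mL protein) expressing human enzyme, room temperature 60 min, luciferin-derivative luminescence; IC50 from % inhibition. CYP4F2: 50 mM KPO4 pH 7.4, 2.5 μM substrate, 1 mM NADPH. CYP4A11: 100 mM Tris-HCl pH 7.5, 60 μM substrate, NADP+/glucose 6-phosphate/G6PDH regenerating system, 3.3 mM MgCl2.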

In another experiment the target is human CYP4F2 (Homo sapiens (Human), UniProt P78329). The experiment can be described thus: Inhibition test against 20-HETE producing enzyme CYP4F2 (luciferine derivative, luminescence). Type of experiment: biochemical. Conditions: E. coli membrane fraction expressing human CYP4F2, 2.5 μM luciferine derivative, room temperature 60 minutes. Summed up:
as §1

Each structure is given as a SMILES string. Bounds are passed on as bounds.

Sequence of human CYP4F2 (P78329 5-520): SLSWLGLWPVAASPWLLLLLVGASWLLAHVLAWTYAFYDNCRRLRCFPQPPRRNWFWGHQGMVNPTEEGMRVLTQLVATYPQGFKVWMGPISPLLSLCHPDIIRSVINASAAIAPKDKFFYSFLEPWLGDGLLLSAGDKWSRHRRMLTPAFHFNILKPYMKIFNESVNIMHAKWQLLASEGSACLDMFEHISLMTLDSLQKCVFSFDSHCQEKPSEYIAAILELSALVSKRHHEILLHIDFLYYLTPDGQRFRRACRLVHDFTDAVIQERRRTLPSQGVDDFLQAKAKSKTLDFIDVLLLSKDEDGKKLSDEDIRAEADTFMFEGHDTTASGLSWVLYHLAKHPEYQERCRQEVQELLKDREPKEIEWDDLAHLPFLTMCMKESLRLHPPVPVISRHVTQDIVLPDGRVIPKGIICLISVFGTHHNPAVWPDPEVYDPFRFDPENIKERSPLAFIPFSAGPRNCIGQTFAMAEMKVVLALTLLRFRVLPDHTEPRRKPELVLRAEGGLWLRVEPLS
Sequence of human CYP4A11 (Q02928 5-519): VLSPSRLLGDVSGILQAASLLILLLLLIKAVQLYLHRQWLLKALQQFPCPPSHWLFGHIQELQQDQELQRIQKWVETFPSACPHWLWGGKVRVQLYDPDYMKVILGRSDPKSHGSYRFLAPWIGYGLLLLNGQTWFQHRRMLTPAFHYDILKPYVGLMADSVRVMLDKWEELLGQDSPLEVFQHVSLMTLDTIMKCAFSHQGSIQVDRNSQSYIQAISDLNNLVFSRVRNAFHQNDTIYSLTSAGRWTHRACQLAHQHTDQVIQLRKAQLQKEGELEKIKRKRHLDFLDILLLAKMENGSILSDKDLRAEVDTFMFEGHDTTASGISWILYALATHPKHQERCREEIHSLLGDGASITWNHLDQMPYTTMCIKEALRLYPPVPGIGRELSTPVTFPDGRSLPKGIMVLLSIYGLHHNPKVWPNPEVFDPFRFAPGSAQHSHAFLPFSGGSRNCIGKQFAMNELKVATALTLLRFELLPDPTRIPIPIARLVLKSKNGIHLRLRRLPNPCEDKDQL

For orientation: IC50 means the concentration that inhibits the measured activity by half. As to `CC(C)(Oc1cccc(COc2ccc(-c3ccn[nH]3)nc2)c1)C(=O)O` [Example 18-5], the IC50 on human CYP4A11 was found to be 32 nM; at human CYP4F2, 5200 nM.

For `O=C(O)c1cccc(OCCOc2ccc(-c3ccn[nH]3)nc2)c1` [Example 18-6], the half-maximal inhibitory concentration (IC50) at human CYP4A11 came out at 310 nM; against human CYP4F2, 6100 nM.

As for `CS(=O)(=O)NCCCCCCOc1ccc(-c2ccn[nH]2)nc1` [Example 19-1, N-[6-[[6-(1H-Pyrazol-5-yl)-3-pyridinyl]oxy]hexyl]methanesulfonamide], the IC50 on human CYP4A11 was 1700 nM; at human CYP4F2, 22 nM.

In the case of `CS(=O)(=O)c1cc(COc2ccc(-c3ccn[nH]3)nc2)ccc1O` [Example 20-1, 2-Methylsulfonyl-4-[[6-(1H-pyrazol-5-yl)-3-pyridinyl]oxymethyl]phenol], the IC50 against human CYP4A11 was determined as 28000 nM; against human CYP4F2 it was 1100 nM.

With `CS(=O)(=O)c1cc(O)cc(COc2ccc(-c3ccn[nH]3)nc2)c1` [Example 20-2], the IC50 against human CYP4A11 stood at 210 nM; on human CYP4F2 it was 69 nM.

`O=C(O)Cc1ccc(COc2ccc(-c3ccn[nH]3)nc2)cc1` [Example 21-1, 2-[4-[[6-(1H-Pyrazol-5-yl)-3-pyridinyl]oxymethyl]phenyl]acetic Acid]: the IC50 on human CYP4A11 came out at 43 nM; at human CYP4F2 it was 15000 nM.

For the compound `O=C(O)Cc1ccccc1COc1ccc(-c2ccn[nH]2)nc1` [Example 21-2], the IC50 on human CYP4A11 was 3800 nM; at human CYP4F2 it was above 50000 nM.

`O=C(O)C1(c2cccc(COc3ccc(-c4ccn[nH]4)nc3)c2)CC1` [Example 21-3]: the IC50 stood at 16 nM at human CYP4A11 and 21000 nM against human CYP4F2.

With `CC(C)(CCNS(=O)(=O)c1cccc(COc2ccc(-c3ccn[nH]3)nc2)c1)C(=O)O` [Example 21-4], the IC50 worked out at 25 nM at human CYP4A11 and 1500 nM against human CYP4F2.

With `CN(CCC(C)(C)C(=O)O)S(=O)(=O)c1cccc(COc2ccc(-c3ccn[nH]3)nc2)c1` [Example 21-5], the 50% inhibitory concentration (IC50) against human CYP4A11 worked out at 29 nM; against human CYP4F2, 430 nM.

On to `O=C(O)/C=C/c1cccc(COc2ccc(-c3ccn[nH]3)nc2)c1` [Example 22-1, (2E)-3-[3-[[[6-(1H-Pyrazol-5-yl)pyridin-3-yl]oxy]methyl]phenyl]-2-propenoic Acid], for which the IC50 was 15 nM against human CYP4A11 and 140 nM on human CYP4F2.

For the compound `O=C(O)c1cccc(COc2ccc(-c3ccn[nH]3)nc2)c1` [Example 22-2], the IC50 against human CYP4A11 was 42 nM; on human CYP4F2, 1400 nM.

As for `O=C(O)Cc1cccc(COc2ccc(-c3ccn[nH]3)nc2)c1` [Example 22-3], the results for the IC50 against human CYP4A11 and against human CYP4F2 were 16 nM and 17000 nM, respectively.

Regarding `O=C(O)CCc1cccc(COc2ccc(-c3ccn[nH]3)nc2)c1` [Example 22-4], the IC50 against human CYP4A11 came to 20 nM; against human CYP4F2, 1400 nM.

As for `O=C(O)c1cnc(-c2cccc(COc3ccc(-c4ccn[nH]4)nc3)c2)nc1` [Example 22-5, 2-[3-[[6-(1H-Pyrazol-5-yl)-3-pyridinyl]oxymethyl]phenyl]-5-pyrimidinecarboxylic Acid], the IC50 on human CYP4A11 is 120 nM; against human CYP4F2 it was 3100 nM.

Consider `O=C(O)c1ccnc(-c2cccc(COc3ccc(-c4ccn[nH]4)nc3)c2)n1` [Example 22-6], for which the figures for the 50% inhibitory concentration (IC50) on human CYP4A11 and against human CYP4F2 were 110 nM and 3100 nM, respectively.

For the compound `O=C(O)c1ncc(-c2cccc(COc3ccc(-c4ccn[nH]4)nc3)c2)cn1` [Example 22-7], the values for the IC50 against human CYP4A11 and on human CYP4F2 were 38 nM and 1200 nM, respectively.

Turning to `O=C(O)C1CCN(S(=O)(=O)c2cccc(COc3ccc(-c4ccn[nH]4)nc3)c2)CC1` [Example 22-8], the concentration for half-maximal inhibition (IC50) against human CYP4A11 stood at 68 nM; at human CYP4F2, 1500 nM.

With `O=C(O)C1CCN(S(=O)(=O)c2cccc(COc3ccc(-c4ccn[nH]4)nc3)c2)C1` (stereo not drawn) [Example 22-10], the IC50 at human CYP4A11 is 24 nM; at human CYP4F2, 2000 nM.

Turning to `O=C(O)C1CN(S(=O)(=O)c2cccc(COc3ccc(-c4ccn[nH]4)nc3)c2)CCO1` (stereo not drawn) [Example 22-12], the results for the IC50 against human CYP4A11 and against human CYP4F2 were 53 nM and 2000 nM, respectively.

In the case of `CC(C)(Oc1cc(COc2ccc(-c3ccn[nH]3)nc2)ccn1)C(=O)O` [Example 22-13, 2-Methyl-2-[[4-[[6-(1H-pyrazol-5-yl)-3-pyridinyl]oxymethyl]-2-pyridinyl]oxy]propanoic Acid], the IC50 against human CYP4A11 came to 380 nM; against human CYP4F2, 11000 nM.

As for `O=C(O)c1cc(COc2ccc(-c3ccn[nH]3)nc2)ccc1F` [Example 22-15], the IC50 against human CYP4A11 amounted to 92 nM; against human CYP4F2 it was 14000 nM.

In the case of `O=C(O)c1cc(COc2ccc(-c3ccn[nH]3)nc2)ccc1Cl` [Example 22-16], the figures for the 50% inhibitory concentration (IC50) against human CYP4A11 and on human CYP4F2 were 780 nM and 33000 nM, respectively.

For `COc1cc(COc2ccc(-c3ccn[nH]3)nc2)ccc1C(=O)O` [Example 22-17, 2-Methoxy-4-[[6-(1H-pyrazol-5-yl)-3-pyridinyl]oxymethyl]benzoic Acid], the figures for the IC50 against human CYP4A11 and at human CYP4F2 were 62 nM and 19000 nM, respectively.

As to `O=C(O)c1ccc(COc2ccc(-c3ccn[nH]3)nc2)cc1F` [Example 22-18], the figures for the IC50 on human CYP4A11 and on human CYP4F2 were 35 nM and 18000 nM, respectively.

Take `O=C(O)Cc1cccc(OCCOc2ccc(-c3ccn[nH]3)nc2)c1` [Example 22-19, 2-[3-[2-[[6-(1H-Pyrazol-5-yl)-3-pyridinyl]oxy]ethoxy]phenyl] acetic Acid]: the IC50 against human CYP4A11 was 49 nM; on human CYP4F2 it was 1500 nM.

Turning to `O=C(O)CCCCCCOc1ccc(-c2ccn[nH]2)nc1` [Example 22-20, 7-[[6-(1H-Pyrazol-5-yl)-3-pyridinyl]oxy]heptanoic Acid], the IC50 at human CYP4A11 worked out at 76 nM; on human CYP4F2, 9600 nM.

Regarding `CNS(=O)(=O)c1cccc(COc2ccc(-c3ccn[nH]3)nc2)c1` [Example 23-1, N-Methyl-3-[[6-(1-H-pyrazol-5-yl)-3-pyridinyl]oxymethyl]benzenesulfonamide], the IC50 at human CYP4A11 was found to be 36 nM; at human CYP4F2, 220 nM.

Regarding `CNS(=O)(=O)c1cccc(CN(C)S(=O)(=O)c2cccc(COc3ccc(-c4ccn[nH]4)nc3)c2)c1` [Example 23-2, N-Methyl-3-[[methyl-[3-[[6-(1-H-pyrazol-5-yl)-3-pyridinyl]oxymethyl]phenyl]sulfonylamino]methyl]benzenesulfonamide], the IC50 came to 13 nM at human CYP4A11 and 3 nM against human CYP4F2.

`O=S(=O)(NCCc1c[nH]c2ccccc12)c1ccc(COc2ccc(-c3ccn[nH]3)nc2)cc1` [Example 23-3]: the results for the IC50 against human CYP4A11 and at human CYP4F2 were 1700 nM and 49 nM, respectively.

Regarding `OCc1ccc(COc2ccc(-c3ccn[nH]3)nc2)cc1` [Example 23-4], the IC50 against human CYP4A11 is 2000 nM; at human CYP4F2, 51 nM.

In the case of `OCc1cccc(COc2ccc(-c3ccn[nH]3)nc2)c1` [Example 23-5], the IC50 on human CYP4A11 was determined as 480 nM; against human CYP4F2, 130 nM.

Turning to `O=S(=O)(Nc1ccc(F)cc1)c1ccc(COc2ccc(-c3ccn[nH]3)nc2)cc1` [Example 23-6], the results for the IC50 at human CYP4A11 and at human CYP4F2 were 270 nM and 6.4 nM, respectively.

`CC(C(=O)O)c1cccc(COc2ccc(-c3ccn[nH]3)nc2)c1` (stereo not drawn) [Example 24-1, Sodium 2-[3-[[6-(1H-pyrazol-5-yl)-3-pyridinyl]oxymethyl]phenyl]propanoate]: the IC50 was 16 nM on human CYP4A11 and 13000 nM against human CYP4F2.

Turning to `CC(C)(C(=O)O)c1cccc(COc2ccc(-c3ccn[nH]3)nc2)c1` [Example 24-2, Sodium 2-methyl-2-[3-[[6-(1H-pyrazol-5-yl)-3-pyridinyl]oxymethyl]phenyl]propanoate], the results for the IC50 against human CYP4A11 and against human CYP4F2 were 16 nM and 3500 nM, respectively.

Turning to `CC(C)(C(=O)O)c1cccc(OCCOc2ccc(-c3ccn[nH]3)nc2)c1` [Example 24-3], the IC50 was 60 nM on human CYP4A11 and 3200 nM against human CYP4F2.

`Cc1cc(COc2ccc(-c3ccn[nH]3)nc2)ccc1C(=O)O` [Example 25-1, 2-Methyl-4-[[6-(1H-pyrazol-5-yl)-3-pyridinyl]oxymethyl]benzoic Acid]: the results for the IC50 on human CYP4A11 and against human CYP4F2 were 33 nM and 16000 nM, respectively.

For `CC(C)(O)c1cccc(COc2ccc(-c3ccn[nH]3)nc2)c1` [Example 27-1, 2-[3-[[6-(1-H-Pyrazol-5-yl)-3-pyridinyl]oxymethyl]phenyl]-2-propanol], the results for the IC50 against human CYP4A11 and against human CYP4F2 were 44 nM and 400 nM, respectively.

On to `CC(O)(c1cccc(COc2ccc(-c3ccn[nH]3)nc2)c1)C(F)(F)F` (stereo not drawn) [Example 27-2], for which the IC50 came to 15 nM against human CYP4A11 and 300 nM against human CYP4F2.

Turning to `OC1(c2cccc(COc3ccc(-c4ccn[nH]4)nc3)c2)CCC1` [Example 27-3], the IC50 was 120 nM against human CYP4A11 and 350 nM against human CYP4F2.

Consider `OC1(c2cccc(COc3ccc(-c4ccn[nH]4)nc3)c2)CCCC1` [Example 27-4], for which the IC50 against human CYP4A11 is 110 nM; on human CYP4F2, 120 nM.

For `CC(C)(O)c1cc(COc2ccc(-c3ccn[nH]3)nc2)ccc1F` [Example 27-5], the IC50 is 79 nM against human CYP4A11 and 900 nM on human CYP4F2.

In the case of `O=C(O)[C@H]1C[C@](O)(c2cccc(COc3ccc(-c4ccn[nH]4)nc3)c2)C1` [Example 28-1, 3-Hydroxy-3-[3-[[6-(1-H-pyrazol-5-yl)-3-pyridinyl]oxymethyl]phenyl]-1-cyclobutanecarboxylic Acid], the IC50 was found to be 61 nM against human CYP4A11 and 470 nM on human CYP4F2.

Take `O=C(O)[C@H]1C[C@](O)(c2cc(COc3ccc(-c4ccn[nH]4)nc3)ccc2F)C1` [Example 28-2]: the IC50 against human CYP4A11 worked out at 100 nM; on human CYP4F2, 1000 nM.

With `O=C(O)c1cccc(CCCOc2ccc(-c3ccn[nH]3)nc2)n1` [Example 29-1, 6-[3-[[6-(1H-Pyrazol-5-yl)-3-pyridinyl]oxy]propyl]-2-pyridinecarboxylic Acid], the figures for the IC50 against human CYP4A11 and against human CYP4F2 were 650 nM and 4000 nM, respectively.
